Paper PMC8258866 (Journal of medicinal chemistry, 2020)

Key:
MCF7:CFR 3D spheroids = test: 3D-spheroid growth assay; type: cell-based; details: 100 nM; cell viability at day 9
MCF-7:Tam1 tumors = test: MCF-7:TAM1 xenograft, combination with fulvestrant; type: in vivo, athymic nude mice; details: 4 weeks
[1] = test system: tamoxifen-resistant MCF-7:TAM1 cell-derived xenograft; test: MCF-7:TAM1 xenograft, monotherapy; type: in vivo
MCF-7:CFR cells [2] = test: Cell growth assay in fulvestrant-resistant MCF-7:CFR 2D cultures; type: cell-based; details: MCF-7:CFR growth inhibition
BET family proteins = test: BROMOscan bromodomain profiling, BET family; type: binding; details: across BET family proteins
[3] = test system: MCF-7:WS8, MCF-7:5C, MCF-7:TAM1, T47D, T47D/TDG, MCF-7:CPR, MCF-7:CFR cells; test: Cell growth assay across ER+ breast cancer cell lines; type: cell-based; details: read-out: IC50 across all cell lines
MCF-7:CFR cells [4] = test: 3 h treatment and washout study in MCF-7:CFR cells; type: cell-based; details: media replaced after 3 h, viability after 5 days
Kinetic solubility = type: physicochemical; details: 27 tested as HCl salt; for solubility: PBS, pH 7.4, solubility (PBS, pH 7.4)
Mouse pharmacokinetics = type: in vivo, CD1 mice; details: iv 5 mg/kg, mice, HCl salt

COc1nnc2ccc(N3CCC(c4ccc(OCCN5CCN(C)C(=O)[C@H]5C)cc4)CC3)nn12 [Compound 5, (3R)-4-[2-[4-[1-(3-Methoxy-[1,2,4]-triazolo[4,3-b]pyridazin-6-yl)-4-piperidyl]phenoxy]ethyl]-1,3-dimethyl-piperazin-2-one]
effect on MCF-7:CFR 3D spheroid growth/viability (MCF7:CFR 3D spheroids): significantly inhibited growth

CCNC(=O)C[C@@H]1N=C(c2ccc(Cl)cc2)c2cc(OC)ccc2-n2c(C)nnc21 [Compound 2, reference compound]
tumor growth inhibition versus vehicle control (MCF-7:Tam1 tumors; 50 mg/kg po in combination with fulvestrant sc 1 (mg/mouse)/week): comparable and significant tumor growth inhibition

CC/C(=C(\c1ccccc1)c1ccc(OCCN(C)C)cc1)c1ccccc1 [tamoxifen, reference compound]
effect on tumor growth relative to vehicle control ([1]; 1.5 mg/mouse/day po, day 28): no significant effect on tumor growth

CC/C(=C(\c1ccc(O)cc1)c1ccc(OCCN(C)C)cc1)c1ccccc1 [4-hydroxytamoxifen]
effect on MCF-7:CFR 3D spheroid growth/viability (MCF7:CFR 3D spheroids): Neither 4-hydroxytamoxifen (4OHT) nor fulvestrant inhibited MCF-7:CFR cell growth

C[C@]12CC[C@@H]3c4ccc(O)cc4C[C@@H](CCCCCCCCC[S+]([O-])CCCC(F)(F)C(F)(F)F)[C@H]3[C@@H]1CC[C@@H]2O (stereo partly shown) [fulvestrant]
effect on MCF-7:CFR 3D spheroid growth/viability (MCF7:CFR 3D spheroids): Neither 4-hydroxytamoxifen (4OHT) nor fulvestrant inhibited MCF-7:CFR cell growth

CCS(=O)(=O)Nc1cc(-c2cn(C)c3c(=O)[nH]ccc23)cc2c1ccn2C(C)(c1ccccn1)c1ccccn1 [Compound 27, N-(1-(1,1-Di(pyridin-2-yl)ethyl)-6-(1-methyl-7-oxo-6,7-dihydro-1H-pyrrolo[2,3-c]pyridin-3-yl)-1H-indol-4-yl)-ethanesulfonamide]
cellular potency over JQ1 (MCF-7:CFR cells [2]): > 100 fold | Kd (BET family proteins): < 1 nM | effect on MCF-7:CFR 3D spheroid growth/viability (MCF7:CFR 3D spheroids): complete loss of spheroid viability | IC50 [3]: < 10 nM | efficacy after drug washout (MCF-7:CFR cells [4]): only slightly diminished | solubility (PBS, pH 7.4) (Kinetic solubility): 73.43 μM | solubility (Kinetic solubility): 73.4 µM | Cl (Mouse pharmacokinetics): 25.5 (mL/min)/kg | effect on animal body weight ([1]; 50 (mg/kg)/day po, 4 weeks): without any effect on animal body weight | overt signs of toxicity ([1]; once daily administration for 4 weeks): no overt signs of toxicity | tumor growth inhibition versus vehicle control (MCF-7:Tam1 tumors; 30 mg/kg po in combination with fulvestrant sc 1 (mg/mouse)/week): comparable and significant tumor growth inhibition

CC(=O)[C@H]1CC[C@H]2[C@@H]3CCC4=CC(=O)CC[C@]4(C)[C@H]3CC[C@]12C [progesterone, reference compound]
solubility (Kinetic solubility): 22.4 µM

Cc1sc2c(c1C)C(c1ccc(Cl)cc1)=N[C@@H](CC(=O)OC(C)(C)C)c1nnc(C)n1-2 [Compound 1, reference compound]
effect on MCF-7:CFR 3D spheroid growth/viability (MCF7:CFR 3D spheroids): significantly inhibited growth | efficacy after drug washout (MCF-7:CFR cells [4]): no significant efficacy at <300 nM
